The values that follow come from ChEMBL document CHEMBL5465560, “Selectivity Literature for EUbOPEN Chemogenomic Library” (2024).

A value given as a limit tells only on which side of the number the result lay.

The target in assay [1] is T1, Testis-specific serine/threonine-protein kinase 3 (Homo sapiens) (UniProt Q96PN8).
T1 sequence (whole entry): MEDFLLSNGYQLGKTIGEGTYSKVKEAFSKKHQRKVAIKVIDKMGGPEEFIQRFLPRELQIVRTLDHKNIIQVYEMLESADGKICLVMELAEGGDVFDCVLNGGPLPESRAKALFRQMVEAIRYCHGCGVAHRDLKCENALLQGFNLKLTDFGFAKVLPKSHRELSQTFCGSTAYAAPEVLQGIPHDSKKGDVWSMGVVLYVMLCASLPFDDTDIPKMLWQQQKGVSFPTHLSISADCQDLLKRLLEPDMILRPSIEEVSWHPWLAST
Nature of the assay: Selectivity interaction (KinomeScan (DiscoverX)) EUB0001079a TSSK3. As to conditions: at 1 µM.

Assay [2] addresses Mitogen-activated protein kinase 8 (Homo sapiens, UniProt P45983). Nature of the assay: Selectivity interaction (Millipore kinase profiler) EUB0000124b MAPK8. As to conditions: at 10 µM.
Assay [3] has as its target Mitogen-activated protein kinase 7 (Homo sapiens) (UniProt Q13164). Nature of the assay: Selectivity interaction (KinomeScan (DiscoverX)) EUB0000695a MAPK7. As to conditions: at 100 nM.
Assay [4] addresses T2, Bromodomain-containing protein 1 (Homo sapiens) (UniProt O95696).
T2 sequence (whole entry): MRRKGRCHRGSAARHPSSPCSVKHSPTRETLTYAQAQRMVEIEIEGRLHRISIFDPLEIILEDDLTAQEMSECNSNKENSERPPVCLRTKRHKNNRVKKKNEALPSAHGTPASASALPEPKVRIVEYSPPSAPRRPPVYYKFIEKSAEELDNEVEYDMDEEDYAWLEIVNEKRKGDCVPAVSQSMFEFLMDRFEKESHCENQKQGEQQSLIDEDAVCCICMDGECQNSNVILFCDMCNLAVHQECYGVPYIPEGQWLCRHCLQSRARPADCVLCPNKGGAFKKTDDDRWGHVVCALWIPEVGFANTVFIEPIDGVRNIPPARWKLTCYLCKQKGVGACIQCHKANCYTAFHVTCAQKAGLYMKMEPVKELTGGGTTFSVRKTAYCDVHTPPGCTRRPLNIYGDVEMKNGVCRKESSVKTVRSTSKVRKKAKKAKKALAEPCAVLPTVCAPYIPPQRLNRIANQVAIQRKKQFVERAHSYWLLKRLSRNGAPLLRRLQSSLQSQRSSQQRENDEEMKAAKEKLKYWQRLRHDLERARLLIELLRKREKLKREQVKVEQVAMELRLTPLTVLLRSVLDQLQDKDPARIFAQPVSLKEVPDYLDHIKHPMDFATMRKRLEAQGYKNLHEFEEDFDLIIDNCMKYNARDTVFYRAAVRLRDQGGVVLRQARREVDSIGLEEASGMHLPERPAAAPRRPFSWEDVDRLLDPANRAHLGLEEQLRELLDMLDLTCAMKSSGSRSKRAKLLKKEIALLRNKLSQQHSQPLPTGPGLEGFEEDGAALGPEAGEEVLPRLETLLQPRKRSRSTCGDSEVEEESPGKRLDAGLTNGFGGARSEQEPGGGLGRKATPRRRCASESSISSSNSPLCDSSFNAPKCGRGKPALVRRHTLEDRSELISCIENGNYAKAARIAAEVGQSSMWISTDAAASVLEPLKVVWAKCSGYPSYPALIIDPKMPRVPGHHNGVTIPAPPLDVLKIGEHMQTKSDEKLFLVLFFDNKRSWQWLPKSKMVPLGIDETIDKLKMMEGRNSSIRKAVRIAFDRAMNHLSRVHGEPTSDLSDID
Description: Selectivity interaction (PWWP, WD40, and Tudor domain panel (DSLS measurements, literature)) EUB0000270b BRD1.

Assay [5] deals with Histone acetyltransferase p300 (Homo sapiens) (UniProt Q09472). Description: Selectivity interaction (Transferase panel (protein, RNA, and DNA methyltransferases. and EP300 (acetyltransferase))) EUB0000270b EP300.
Assay [6] addresses Ephrin type-A receptor 7 (Homo sapiens) (UniProt Q15375). Description: Selectivity interaction (KinomeScan (DiscoverX)) EUB0000045b EPHA7.
For assay [7], the target named is Tyrosine-protein kinase Lck (Homo sapiens, UniProt P06239). Description: Selectivity interaction (KinomeScan (DiscoverX)) EUB0000045b LCK.
In assay [8] the target is Cyclin-dependent kinase 5/CDK5 activator 1 (Homo sapiens) (UniProt Q00535+Q15078). Description: Selectivity interaction (SelectScreen profiling (Invitrogen)) EUB0000607a CDK5. The assay is classed as protein-complex assay. Conditions: at 2 µM.

Sequence of Ephrin type-A receptor 7 (Homo sapiens) (Q15375 28-998 limits assumed): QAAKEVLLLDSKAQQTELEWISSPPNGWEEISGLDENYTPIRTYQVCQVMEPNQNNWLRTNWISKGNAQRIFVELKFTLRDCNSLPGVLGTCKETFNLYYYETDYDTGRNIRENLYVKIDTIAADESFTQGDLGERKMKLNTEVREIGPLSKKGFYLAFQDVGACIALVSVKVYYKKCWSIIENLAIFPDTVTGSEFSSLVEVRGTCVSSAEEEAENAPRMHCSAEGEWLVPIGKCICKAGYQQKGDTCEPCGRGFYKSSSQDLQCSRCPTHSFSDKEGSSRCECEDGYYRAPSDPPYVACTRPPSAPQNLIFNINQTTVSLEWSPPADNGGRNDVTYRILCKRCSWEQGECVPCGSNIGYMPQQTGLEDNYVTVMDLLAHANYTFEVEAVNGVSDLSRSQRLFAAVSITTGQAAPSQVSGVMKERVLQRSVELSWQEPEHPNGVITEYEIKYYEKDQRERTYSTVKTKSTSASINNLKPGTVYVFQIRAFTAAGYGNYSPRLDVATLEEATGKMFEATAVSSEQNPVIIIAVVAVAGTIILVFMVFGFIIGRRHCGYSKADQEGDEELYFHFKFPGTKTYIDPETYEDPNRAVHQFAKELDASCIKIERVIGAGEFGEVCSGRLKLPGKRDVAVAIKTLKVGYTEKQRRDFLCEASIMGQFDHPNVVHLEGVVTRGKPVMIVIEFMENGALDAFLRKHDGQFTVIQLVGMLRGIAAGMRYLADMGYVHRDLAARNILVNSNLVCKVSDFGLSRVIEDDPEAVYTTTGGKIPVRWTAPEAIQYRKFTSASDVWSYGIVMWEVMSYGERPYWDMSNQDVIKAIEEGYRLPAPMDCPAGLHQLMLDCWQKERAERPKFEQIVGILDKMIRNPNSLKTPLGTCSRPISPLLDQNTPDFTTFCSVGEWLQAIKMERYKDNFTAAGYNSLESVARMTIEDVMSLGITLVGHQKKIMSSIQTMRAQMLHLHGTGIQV
Sequence of Tyrosine-protein kinase Lck (P06239 2-509 limits assumed): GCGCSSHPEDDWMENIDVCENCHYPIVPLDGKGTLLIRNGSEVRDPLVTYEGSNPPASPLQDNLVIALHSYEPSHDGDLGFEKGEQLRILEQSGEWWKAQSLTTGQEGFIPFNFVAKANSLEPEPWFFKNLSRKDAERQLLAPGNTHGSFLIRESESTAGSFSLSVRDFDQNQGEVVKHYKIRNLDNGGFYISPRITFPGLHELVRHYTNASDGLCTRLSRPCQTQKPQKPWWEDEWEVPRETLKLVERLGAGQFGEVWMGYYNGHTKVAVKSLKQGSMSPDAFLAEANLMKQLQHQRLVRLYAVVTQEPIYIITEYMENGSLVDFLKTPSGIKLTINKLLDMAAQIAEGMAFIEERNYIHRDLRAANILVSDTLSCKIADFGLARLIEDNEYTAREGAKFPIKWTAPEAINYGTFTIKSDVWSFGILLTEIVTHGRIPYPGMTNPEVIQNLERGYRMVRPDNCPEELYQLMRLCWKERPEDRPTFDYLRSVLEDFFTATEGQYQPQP
Sequence of Histone acetyltransferase p300 (Homo sapiens) (Q09472 whole entry): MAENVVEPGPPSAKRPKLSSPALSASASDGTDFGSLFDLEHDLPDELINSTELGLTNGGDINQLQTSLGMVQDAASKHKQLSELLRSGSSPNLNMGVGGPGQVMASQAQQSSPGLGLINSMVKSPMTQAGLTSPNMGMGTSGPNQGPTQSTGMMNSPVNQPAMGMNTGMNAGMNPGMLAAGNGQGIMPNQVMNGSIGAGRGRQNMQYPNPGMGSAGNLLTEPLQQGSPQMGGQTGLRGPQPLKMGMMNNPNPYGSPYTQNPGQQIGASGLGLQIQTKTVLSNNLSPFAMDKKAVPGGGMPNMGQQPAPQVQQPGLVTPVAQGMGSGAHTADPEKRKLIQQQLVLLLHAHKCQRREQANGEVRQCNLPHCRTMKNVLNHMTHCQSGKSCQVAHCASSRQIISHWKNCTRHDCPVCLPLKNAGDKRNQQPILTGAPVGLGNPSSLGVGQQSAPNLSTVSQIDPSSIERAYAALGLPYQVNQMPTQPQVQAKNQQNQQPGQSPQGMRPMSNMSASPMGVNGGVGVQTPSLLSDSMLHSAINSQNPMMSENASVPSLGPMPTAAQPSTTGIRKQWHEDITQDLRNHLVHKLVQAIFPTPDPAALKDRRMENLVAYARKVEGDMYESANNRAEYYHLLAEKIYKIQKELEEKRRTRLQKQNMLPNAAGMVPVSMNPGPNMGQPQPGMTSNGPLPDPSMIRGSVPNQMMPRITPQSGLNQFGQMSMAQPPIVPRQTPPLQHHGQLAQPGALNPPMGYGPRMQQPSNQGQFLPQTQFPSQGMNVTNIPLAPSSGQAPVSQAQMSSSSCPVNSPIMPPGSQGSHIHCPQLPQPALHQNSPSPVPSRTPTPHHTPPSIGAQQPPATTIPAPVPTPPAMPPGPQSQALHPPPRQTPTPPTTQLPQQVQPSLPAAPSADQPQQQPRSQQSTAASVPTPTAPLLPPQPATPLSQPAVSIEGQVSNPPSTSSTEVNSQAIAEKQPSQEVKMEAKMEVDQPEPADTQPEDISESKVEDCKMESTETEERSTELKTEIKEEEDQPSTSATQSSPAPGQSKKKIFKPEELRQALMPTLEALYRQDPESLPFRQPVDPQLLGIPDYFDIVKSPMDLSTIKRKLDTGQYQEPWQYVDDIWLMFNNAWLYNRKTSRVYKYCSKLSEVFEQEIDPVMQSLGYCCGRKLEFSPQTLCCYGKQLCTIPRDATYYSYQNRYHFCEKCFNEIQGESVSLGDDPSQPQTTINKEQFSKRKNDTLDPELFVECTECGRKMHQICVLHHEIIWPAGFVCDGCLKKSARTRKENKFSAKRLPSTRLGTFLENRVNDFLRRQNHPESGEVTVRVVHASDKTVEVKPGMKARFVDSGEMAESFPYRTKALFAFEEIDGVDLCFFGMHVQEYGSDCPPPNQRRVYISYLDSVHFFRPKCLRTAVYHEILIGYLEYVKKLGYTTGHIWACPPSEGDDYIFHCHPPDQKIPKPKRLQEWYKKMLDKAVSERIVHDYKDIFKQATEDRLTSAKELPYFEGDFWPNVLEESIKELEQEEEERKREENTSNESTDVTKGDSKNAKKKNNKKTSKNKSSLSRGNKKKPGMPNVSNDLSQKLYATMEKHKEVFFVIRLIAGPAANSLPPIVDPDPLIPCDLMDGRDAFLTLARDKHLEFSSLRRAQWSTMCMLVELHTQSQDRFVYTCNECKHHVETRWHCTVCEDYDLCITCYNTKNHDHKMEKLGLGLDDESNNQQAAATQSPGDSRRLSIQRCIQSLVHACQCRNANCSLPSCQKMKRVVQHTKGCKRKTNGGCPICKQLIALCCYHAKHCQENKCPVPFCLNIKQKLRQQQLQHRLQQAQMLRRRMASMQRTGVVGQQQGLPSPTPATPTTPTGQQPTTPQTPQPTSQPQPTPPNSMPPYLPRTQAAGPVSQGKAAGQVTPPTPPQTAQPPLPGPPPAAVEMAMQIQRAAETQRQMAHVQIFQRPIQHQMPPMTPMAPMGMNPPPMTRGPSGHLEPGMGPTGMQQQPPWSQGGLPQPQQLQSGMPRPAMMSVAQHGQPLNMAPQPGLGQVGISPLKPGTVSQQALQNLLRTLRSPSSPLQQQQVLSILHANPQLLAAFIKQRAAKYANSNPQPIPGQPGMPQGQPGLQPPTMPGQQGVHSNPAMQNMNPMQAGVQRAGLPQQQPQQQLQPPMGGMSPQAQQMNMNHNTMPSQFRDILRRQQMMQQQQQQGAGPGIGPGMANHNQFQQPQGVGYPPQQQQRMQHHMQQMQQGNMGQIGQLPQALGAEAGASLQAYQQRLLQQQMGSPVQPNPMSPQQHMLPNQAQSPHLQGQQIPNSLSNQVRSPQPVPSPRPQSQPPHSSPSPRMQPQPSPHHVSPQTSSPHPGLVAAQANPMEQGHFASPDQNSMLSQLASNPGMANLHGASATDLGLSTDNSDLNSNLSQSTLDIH
Sequence of Mitogen-activated protein kinase 7 (Homo sapiens) (Q13164 2-816 limits assumed): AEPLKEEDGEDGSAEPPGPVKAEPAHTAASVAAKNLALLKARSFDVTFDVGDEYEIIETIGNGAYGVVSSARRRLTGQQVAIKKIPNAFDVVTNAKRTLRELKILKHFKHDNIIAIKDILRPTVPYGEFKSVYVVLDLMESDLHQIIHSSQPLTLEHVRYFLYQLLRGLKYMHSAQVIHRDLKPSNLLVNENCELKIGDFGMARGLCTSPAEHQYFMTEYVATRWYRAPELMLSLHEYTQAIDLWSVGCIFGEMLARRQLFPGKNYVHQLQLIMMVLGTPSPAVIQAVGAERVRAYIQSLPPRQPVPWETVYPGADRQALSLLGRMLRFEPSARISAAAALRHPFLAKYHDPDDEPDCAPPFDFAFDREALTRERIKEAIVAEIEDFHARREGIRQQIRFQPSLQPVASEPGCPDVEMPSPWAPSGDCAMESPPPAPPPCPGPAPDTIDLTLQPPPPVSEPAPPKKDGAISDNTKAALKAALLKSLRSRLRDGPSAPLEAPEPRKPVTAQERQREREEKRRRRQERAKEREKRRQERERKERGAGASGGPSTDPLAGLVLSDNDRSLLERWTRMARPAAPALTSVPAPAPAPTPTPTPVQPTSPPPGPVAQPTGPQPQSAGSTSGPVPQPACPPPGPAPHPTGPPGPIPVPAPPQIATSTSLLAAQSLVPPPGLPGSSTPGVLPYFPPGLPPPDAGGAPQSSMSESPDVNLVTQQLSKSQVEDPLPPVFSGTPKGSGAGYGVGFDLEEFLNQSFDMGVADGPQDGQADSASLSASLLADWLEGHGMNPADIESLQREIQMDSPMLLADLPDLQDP

On to `Nc1cnc(N2CCc3cc(S(=O)(=O)Nc4c(F)cc(Cl)cc4F)cc(N4CCCC4=O)c32)nc1` [TP-020n], for which the % of control in assay [1] is 100%.

With `CC(=O)Nc1cccc(-n2c(=O)n(C3CC3)c(=O)c3c(Nc4ccc(I)cc4F)n(C)c(=O)c(C)c32)c1`, in assay [2], the % of control was determined as 104%.

As for `Cc1cc(F)c(C(=O)Nc2cccc(-c3nncn3C(C)C)n2)cc1-n1cnc(C2CC2)c1`, the % of control in assay [3] is 100%.

`Cc1cc(CN)cc(C)c1-c1ncn(C)c1-c1cncn1C` showed a dTagg in assay [4] of -2.2 K. The % activity in assay [5] (at 1 µM) is greater than 90%; in assay [5] (at 10 µM), greater than 80%.

For the molecule `C=CC(=O)Nc1cc(-n2c(=O)ccc3cnc4ccc(-c5ccc(NS(C)(=O)=O)cc5)cc4c32)ccc1C`, the % of control turned out to be 100% in assay [6] (at 1 µM), 85% in assay [6] (at 10 µM), 89% in assay [7] (at 1 µM) and 80% in assay [7] (at 10 µM).

`CNC(=O)Nc1ccc(-c2nc(N3CC4CCC(C3)O4)c3cnn(C4CCC5(CC4)OCCO5)c3n2)cc1`: in assay [8], the % of inhibition is -4%.
